In brackets after ≈: the same amount, converted by molar mass. Structures can show the parent of a compound that is named as a salt. Where two headings read alike, the source gives them in different places.
How the values were obtained:
C. albicans 15T = experiment: MIC determination by AFST-EUCAST standard methodology; type: cell-based, Candida albicans; conditions: 24 h, visually and spectrophotometrically, read-out: Antifungal activity, expressed as MIC50
Method: (§1) Determination of MICs by AFST-EUCAST Standard Methodology
(§2) Assay medium. The assay medium was RPMI […] without NaHCO3 and with L-glutamine (Sigma Aldrich, Italy), buffered at pH 7.0 with 0.165 M morpholinepropanesulphonic acid (Sigma Aldrich, Italy) and supplemented with 2% (w/v) glucose. The medium, prepared as double-strength solution, was sterilized by filtration and diluted 1:2 (v/v) with the fungal inoculum prepared in sterile distilled water.
(§3) The yeast isolates were grown on Sabouraud dextrose agar (Oxoid, Madrid, Spain) for 48 h at 37° C. before testing. Suspensions were prepared by combining five distinct colonies of each culture of >1 mm diameter. A spectrophotometric procedure for inoculum preparation was used. The final inoculum suspension, prepared in sterile distilled water, contained between 0.5·10^5 and 2.5·10^5 cfu/mL.
(§4) Stock solutions of test compounds were prepared in 100% dimethyl sulfoxide. Stock solutions were prepared as 100× concentration relative to the highest concentration in the antifungal activity test, and frozen at −70° C. until used.
(§5) Sterile plastic micro titration plates containing flat-bottomed wells were used. The plates contained serial dilution of the antifungal agents with a volume of assay medium of 100 μL/well. Two drug-free medium wells were used as sterility and growth controls. The trays were inoculated with 100 μL/well of the final inoculum, with the exception of sterility control wells. The range of concentrations tested for each drug was 1.25-80 μM. The microtitration plates were incubated at 37° C. for 24 h. The minimal inhibitory concentrations (MICs) were determined at 24 h both visually and spectrophotometrically.
(§6) By visual endpoint determination, MICs were determined according to a S-1-R scale, with S (susceptible) indicating an optical clear culture, I (intermediate susceptibility) indicating a slightly hazy culture, and R (resistant) indicating no reduction in turbidity. The MIC50 was defined as the lowest concentration of a drug which correspond to a S culture.
(§7) Microtitration plates were stirred using a microtitration plate shaker before reading to ensure uniform turbidity. MICs were obtained by measuring the absorbance at 450 nm with a microtitration plate reader. The value of the blank was subtracted from reading of the rest of the wells. Two endpoints were defined for each antifungal agent tested, with MIC80 indicating the lowest drug concentration resulting in a reduction of growth of 80% or more (determined spectrophotometrically) compared with the growth of the control, and MIC50 indicating the lowest drug concentration resulting in a reduction in growth of 50% (determined spectrophotometrically) compared with the growth of the control. The MIC50 was also defined as the spectrophotometric endpoint.

C. albicans 4T = experiment: as above; type: cell-based, Candida albicans; conditions: 24 h, visually and spectrophotometrically; for MIC50: read-out: Antifungal activity, expressed as MIC50
Method: as §1, §2, §3, §4, §5, §6, §7

C. albicans 53T = experiment: as above; type: cell-based, Candida albicans; conditions: 24 h, visually and spectrophotometrically, read-out: Antifungal activity, expressed as MIC50
Method: as §1, §2, §3, §4, §5, §6, §7

C. albicans ATCC 60193 = experiment: as above; type: cell-based, Candida albicans; conditions: visually and spectrophotometrically, read-out: Antifungal activity, expressed as MIC50
Method: as §1, §2, §3, §4, §5, §6, §7

C. glabrata 70E = experiment: as above; type: cell-based; conditions: for MIC50: C. glabrata 70E, 24 h, visually and spectrophotometrically, read-out: Antifungal activity, expressed as MIC50
Method: as §1, §2, §3, §4, §5, §6, §7

C. krusei 193T = experiment: as above; type: cell-based; conditions: 24 h, visually and spectrophotometrically, read-out: Antifungal activity, expressed as MIC50
Method: as §1, §2, §3, §4, §5, §6, §7

C. krusei ATCC 14243 = experiment: as above; type: cell-based; conditions: visually and spectrophotometrically, read-out: Antifungal activity, expressed as MIC50
Method: as §1, §2, §3, §4, §5, §6, §7

C. parapsilosis 64E = experiment: as above; type: cell-based; conditions: 24 h, visually and spectrophotometrically, read-out: Antifungal activity, expressed as MIC50
Method: as §1, §2, §3, §4, §5, §6, §7

C. parapsilosis 81E = experiment: as above; type: cell-based; conditions: 24 h, visually and spectrophotometrically, read-out: Antifungal activity, expressed as MIC50
Method: as §1, §2, §3, §4, §5, §6, §7

[1] = test system: C. parapsilosis ATCC 34136; experiment: as above; type: cell-based; conditions: visually and spectrophotometrically, read-out: Antifungal activity, expressed as MIC50
Method: as §1, §2, §3, §4, §5, §6, §7

C. tropicalis 86E = experiment: as above; type: cell-based; conditions: 24 h, visually and spectrophotometrically, read-out: Antifungal activity, expressed as MIC50
Method: as §1, §2, §3, §4, §5, §6, §7

C. albicans = experiment: MIC determination, summary over C. albicans strains; type: cell-based; conditions: Candida albicans; text summary over all C. albicans strains; read-out: activity toward C. albicans (MIC)
Method: as §1, §2
(§8) The yeast isolates were grown on Sabouraud dextrose agar (Oxoid, Madrid, Spain) for 48 h at 37° C. before testing. Suspensions were prepared by combining five distinct colonies of each culture of >1 mm diameter. […]
(§9) Sterile plastic micro titration plates containing flat-bottomed wells were used. […] The minimal inhibitory concentrations (MICs) were determined at 24 h both visually and spectrophotometrically.
(§10) By visual endpoint determination, MICs were determined according to a S-1-R scale, with S (susceptible) indicating an optical clear culture, I (intermediate susceptibility) indicating a slightly hazy culture, and R (resistant) indicating no reduction in turbidity. […]
(§11) Microtitration plates were stirred using a microtitration plate shaker before reading to ensure uniform turbidity. MICs were obtained by measuring the absorbance at 450 nm with a microtitration plate reader. The value of the blank was subtracted from reading of the rest of the wells. […]

C. krusei strains = experiment: MIC determination, summary over C. krusei strains; type: cell-based; conditions: Pichia kudriavzevii; text summary over C. krusei strains; read-out: activity toward C. krusei strains (MIC)
Method: as §1, §2, §8, §9, §10, §11

C. parapsilosis = experiment: MIC determination, summary over C. parapsilosis; type: cell-based; conditions: Lodderomyces parapsilosis, stated jointly with C. glabrata; read-out: activity toward C. parapsilosis (MIC)
Method: as §1, §2, §8, §9, §10, §11

[2] = Candida albicans, ATCC60193, 24 h
[3] = Pichia kudriavzevii, ATCC14243, 24 h
[4] = Lodderomyces parapsilosis, ATCC34136, 24 h

Row | MIC50 (C. albicans 15T; Candida albicans) [µM] | MIC50 (C. albicans 4T; Candida albicans) [µM] | MIC50 (C. albicans 53T; Candida albicans) [µM] | MIC50 (C. albicans ATCC 60193; [2]) [µM] | MIC50 (C. glabrata 70E; Nakaseomyces glabratus) [µM] | MIC50 (C. krusei 193T; Pichia kudriavzevii) [µM] | MIC50 (C. krusei ATCC 14243; [3]) [µM] | MIC50 (C. parapsilosis 64E; Lodderomyces parapsilosis) [µM] | MIC50 (C. parapsilosis 81E; Lodderomyces parapsilosis) [µM] | MIC50 [1, 4] [µM] | MIC50 (C. tropicalis 86E; Candida tropicalis) [µM] | Structure (SMILES) | other results
1 | – | – | – | – | – | – | – | – | – | – | – | CC(C)=CCNC(=N)NCCCCCCCCN1CCCCCCCCNC(=N)NC1=O [Compound 13f] | MIC50 (C. albicans 15T): 20 µM (≈ 8.99 µg/mL); MIC50 (C. albicans 4T): 20 µM (≈ 8.99 µg/mL); MIC50 (C. albicans 53T): 20 µM (≈ 8.99 µg/mL); MIC50 (C. albicans ATCC 60193; 24 h): 40 µM (≈ 18 µg/mL); MIC50 (C. glabrata 70E): 80 µM (≈ 36 µg/mL); MIC50 (C. krusei 193T): 20 µM (≈ 8.99 µg/mL); MIC50 (C. krusei ATCC 14243; 24 h): 10 µM (≈ 4.5 µg/mL); MIC50 (C. parapsilosis 64E): >80 µM; MIC50 (C. parapsilosis 81E): 40 µM (≈ 18 µg/mL); MIC50 ([1]; 24 h): >80 µM; MIC50 (C. tropicalis 86E): 20 µM (≈ 8.99 µg/mL)
2 | 5 | 2.5 | 2.5 | 2.5 | 40 | 10 | 20 | 20 | 20 | 80 | 2.5 | N=C(NCCCCCCCCN1CCCCCCCCNC(=N)NC1=O)NCc1ccccc1 [Compound 15a, 1-[benzyl]-3-[8-(4-imino-2-oxo-1,3,5-triazacyclotridec-1-yl)octyl]guanidine tri trifluoroacetate] | –
3 | 2.5 | 80 | 5 | 2.5 | 80 | 40 | 80 | 40 | 80 | 40 | 5 | C#CCNC(=N)NCCCCCCCCN1CCCCCCCCNC(=N)NC1=O.O=C(O)C(F)(F)F.O=C(O)C(F)(F)F.O=C(O)C(F)(F)F [Compound 15b, 1-[propargyl]-3-[8-(4-imino-2-oxo-1,3,5-triazacyclotridec-1-yl)octyl]guanidine tri trifluoroacetate] | Antifungal activity, expressed as MIC50 (C. albicans 4T): resistant
4 | 2.5 | 2.5 | 2.5 | 2.5 | 40 | 10 | 10 | 20 | 40 | > 80 | 1.25 | N=C(NCCCCCCCCN1CCCCCCCCNC(=N)NC1=O)NCC1CC1 [Compound 15c, 1-[cyclopropylmethyl]-3-[8-(4-imino-2-oxo-1,3,5-triazacyclotridec-1-yl)octyl]guanidine tri trifluoroacetate] | MIC (C. albicans): 2.5 µM; MIC (C. krusei strains): 10 µM
5 | 20 | 40 | 40 | 20 | 80 | 80 | 40 | > 80 | > 80 | > 80 | 40 | C=C(C)CNC(=N)NCCCCCCCCN1CCCCCCCCNC(=N)NC1=O [Compound 15d, 1[β-methylallyl]-3-[8-(4-imino-2-oxo-1,3,5-triazacyclotridec-1-yl)octyl]guanidine tri trifluoroacetate] | –
6 | 20 | 20 | 20 | 40 | 80 | 20 | 10 | > 80 | 40 | > 80 | 20 | CC(C)=CCNC(=N)NCCCCCCCCN1CCCCCCCCNC(=N)NC1=O [Compound 15e, 1-[γ,γ-dimethylallyl]-3-[8-(4-imino-2-oxo-1,3,5-triazacyclotridec-1-yl)octyl]guanidine tri trifluoroacetate] | MIC (C. glabrata 70E; Nakaseomyces glabratus, 70E, stated jointly with C. parapsilosis, read-out: activity toward C. glabrata (MIC)): 40 to 80 µM; MIC (C. albicans): 20 to 40 µM; MIC (C. parapsilosis): 40 to 80 µM
7 | 209 (≈ 64 µg/mL) | 209 (≈ 64 µg/mL) | 418 (≈ 128 µg/mL) | 0.8 (≈ 0.245 µg/mL) | 209 (≈ 64 µg/mL) | 418 (≈ 128 µg/mL) | 209 (≈ 64 µg/mL) | 32 (≈ 9.8 µg/mL) | 13 (≈ 3.98 µg/mL) | 6.5 (≈ 1.99 µg/mL) | 52 (≈ 15.9 µg/mL) | OC(Cn1cncn1)(Cn1cncn1)c1ccc(F)cc1F [F, fluconazole, reference compound] | –
